Experimental data from PubChem BioAssay AID1259407 (Chemical Carcinogenesis Research Information System (CCRIS), 2018).
Activity calls are given as the source filed them. The rule behind the calls is not given here.

Tested on: CCRIS mutagenicity, Ames/micronucleus/aberration tests
Experiment: CCRIS mutagenicity studies
Conditions: Test System: AMES SALMONELLA TYPHIMURIUM, Method: PREINCUBATION
[1] = Strain/Indicator: TA98, Metabolic Activation: NONE
[2] = Strain/Indicator: TA100, Metabolic Activation: NONE
[3] = Strain/Indicator: TA1535, Metabolic Activation: NONE
[4] = Strain/Indicator: TA1537, Metabolic Activation: NONE
[5] = Strain/Indicator: TA1537, Metabolic Activation: RAT, LIVER, S-9, AROCLOR 1254 (10%)

Measured: mutagenic call

CC(N)CN (configuration not stated)
inactive: Strain/Indicator: TA98, Metabolic Activation: HAMSTER, LIVER, S-9, AROCLOR 1254 (10%) inactive; negative | [1] inactive; negative | Strain/Indicator: TA98, Metabolic Activation: RAT, LIVER, S-9, AROCLOR 1254 (10%) inactive; negative | Strain/Indicator: TA100, Metabolic Activation: HAMSTER, LIVER, S-9, AROCLOR 1254 (10%) inactive; negative | [2] inactive; negative | Strain/Indicator: TA100, Metabolic Activation: RAT, LIVER, S-9, AROCLOR 1254 (10%) inactive; negative | Strain/Indicator: TA1535, Metabolic Activation: HAMSTER, LIVER, S-9, AROCLOR 1254 (10%) inactive; negative | [3] inactive; negative | Strain/Indicator: TA1535, Metabolic Activation: RAT, LIVER, S-9, AROCLOR 1254 (10%) inactive; negative | Strain/Indicator: TA1537, Metabolic Activation: HAMSTER, LIVER, S-9, AROCLOR 1254 (10%) inactive; negative | [4] inactive; negative | [5] inactive; negative

Cc1ccccc1C=O
inactive: Strain/Indicator: TA97, Metabolic Activation: HAMSTER, LIVER, S-9, AROCLOR 1254 (10 OR 30%) inactive; negative | Strain/Indicator: TA97, Metabolic Activation: NONE inactive; negative | Strain/Indicator: TA97, Metabolic Activation: RAT, LIVER, S-9, AROCLOR 1254 (10 OR 30%) inactive; negative | Strain/Indicator: TA98, Metabolic Activation: HAMSTER, LIVER, S-9, AROCLOR 1254 (10 OR 30%) inactive; negative | [1] inactive; negative | Strain/Indicator: TA98, Metabolic Activation: RAT, LIVER, S-9, AROCLOR 1254 (10 OR 30%) inactive; negative | Strain/Indicator: TA100, Metabolic Activation: HAMSTER, LIVER, S-9, AROCLOR 1254 (10 OR 30%) inactive; negative | [2] inactive; negative | Strain/Indicator: TA100, Metabolic Activation: RAT, LIVER, S-9, AROCLOR 1254 (10 OR 30%) inactive; negative | Strain/Indicator: TA1535, Metabolic Activation: HAMSTER, LIVER, S-9, AROCLOR 1254 (10 OR 30%) inactive; negative | [3] inactive; negative | Strain/Indicator: TA1535, Metabolic Activation: RAT, LIVER, S-9, AROCLOR 1254 (10 OR 30%) inactive; negative | Strain/Indicator: TA1537, Metabolic Activation: HAMSTER, LIVER, S-9, AROCLOR 1254 (10 OR 30%) inactive; negative | [4] inactive; negative | [5] inactive; negative
